According to ChEMBL document CHEMBL4725319, “Discovery of attenuation effect of orexin 1 receptor to aversion of nalfurafine: Synthesis and evaluation of D-nor-nalfurafine derivatives and analyses of the three active conformations of nalfurafine” (Bioorg Med Chem Lett, 2020):
Active and inactive are the calls of the source. The rule behind the calls is not given here.

Legend:
[1] = Dissociation constant, pKa of compound; format: physicochemical
Mus musculus [2] = assay: Analgesic activity in OX1R knock out mouse assessed as increase in wheel running activity at 40 ug/kg; format: functional, organism-based; conditions: dose 40.0 µg/kg
Mus musculus [3] = assay: Analgesic activity in OX1R knock out mouse assessed as increase in wheel running activity at 4 to 10 ug/kg; format: functional, organism-based; conditions: dose microg/kg 4-10
[4] = Toxicity in mouse assessed as conditioned place aversion at 10 to 40 microg/kg, sc; conditions: in vivo, dose 10-40 µg/kg
[5] = Toxicity in dual OX1/2R knock out mouse assessed as increase in conditioned place aversion at 10 to 40 microg/kg, sc; conditions: in vivo, dose 10-40 µg/kg

CN(C(=O)/C=C/c1ccoc1)[C@@H]1CC[C@@]2(O)[C@H]3Cc4ccc(O)c5c4[C@@]2(CCN3CC2CC2)[C@H]1O5 [NALFURAFINE]
pKa [1]: 9.4 | Activity (Mus musculus [2]): Active | Activity (Mus musculus [3]): inactive | Activity [4]: Non-Toxic | Activity [5]: Toxic
